Experimental data as given in ChEMBL document CHEMBL1145498, “A systematic interaction map of validated kinase inhibitors with Ser/Thr kinases” (Proc Natl Acad Sci U S A, 2007).

Legend:
[1] = molecular target: Casein kinase I isoform gamma-2 (Homo sapiens) (UniProt P78368)
[2] = molecular target: 5'-AMP-activated protein kinase catalytic subunit alpha-2 (Homo sapiens) (UniProt P54646)
[3] = molecular target: Ribosomal protein S6 kinase alpha-3 (Homo sapiens) (UniProt P51812)
[4] = molecular target: Death-associated protein kinase 3 (Homo sapiens) (UniProt O43293)
[5] = molecular target: Cyclin-dependent kinase 6 (Homo sapiens) (UniProt Q00534)
Cyclin-dependent kinase 6 (Homo sapiens), sequence (Q00534 whole entry, canonical isoform): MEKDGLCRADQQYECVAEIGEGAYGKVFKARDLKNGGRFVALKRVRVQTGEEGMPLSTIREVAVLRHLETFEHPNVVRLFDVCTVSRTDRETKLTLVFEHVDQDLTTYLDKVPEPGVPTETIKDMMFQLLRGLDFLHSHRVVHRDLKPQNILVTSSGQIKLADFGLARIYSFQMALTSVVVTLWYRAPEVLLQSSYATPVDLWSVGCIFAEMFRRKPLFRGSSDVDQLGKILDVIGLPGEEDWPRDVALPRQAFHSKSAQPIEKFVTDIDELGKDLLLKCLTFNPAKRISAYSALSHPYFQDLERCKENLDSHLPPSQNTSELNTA

[6] = molecular target: Casein kinase I isoform gamma-1 (Homo sapiens) (UniProt Q9HCP0)
[7] = molecular target: Dual specificity protein kinase CLK2 (Homo sapiens) (UniProt P49760)
Dual specificity protein kinase CLK2 (Homo sapiens), sequence (P49760 whole entry, looked up, canonical isoform): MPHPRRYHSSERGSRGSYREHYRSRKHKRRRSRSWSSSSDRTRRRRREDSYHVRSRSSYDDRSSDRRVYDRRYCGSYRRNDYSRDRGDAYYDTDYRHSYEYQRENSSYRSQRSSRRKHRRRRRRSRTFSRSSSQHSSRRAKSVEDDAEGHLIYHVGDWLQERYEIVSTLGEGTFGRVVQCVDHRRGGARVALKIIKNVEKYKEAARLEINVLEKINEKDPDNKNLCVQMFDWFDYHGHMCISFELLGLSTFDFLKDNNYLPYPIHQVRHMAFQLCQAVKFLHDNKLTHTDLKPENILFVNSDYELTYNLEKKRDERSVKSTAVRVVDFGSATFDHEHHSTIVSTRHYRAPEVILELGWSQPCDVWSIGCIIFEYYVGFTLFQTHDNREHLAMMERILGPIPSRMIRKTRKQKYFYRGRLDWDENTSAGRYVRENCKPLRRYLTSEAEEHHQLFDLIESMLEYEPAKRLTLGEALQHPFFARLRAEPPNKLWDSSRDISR

[8] = molecular target: Casein kinase I isoform gamma-3 (Homo sapiens) (UniProt Q9Y6M4)
[9] = molecular target: Calcium/calmodulin-dependent protein kinase type 1D (Homo sapiens) (UniProt Q8IU85)
[10] = molecular target: Dual specificity protein kinase CLK1 (Homo sapiens) (UniProt P49759)
[11] = molecular target: Serine/threonine-protein kinase PAK 6 (Homo sapiens) (UniProt Q9NQU5)
[12] = molecular target: Calcium/calmodulin-dependent protein kinase type II subunit alpha (Homo sapiens) (UniProt Q9UQM7)
Calcium/calmodulin-dependent protein kinase type II subunit alpha (Homo sapiens), sequence (Q9UQM7 whole entry): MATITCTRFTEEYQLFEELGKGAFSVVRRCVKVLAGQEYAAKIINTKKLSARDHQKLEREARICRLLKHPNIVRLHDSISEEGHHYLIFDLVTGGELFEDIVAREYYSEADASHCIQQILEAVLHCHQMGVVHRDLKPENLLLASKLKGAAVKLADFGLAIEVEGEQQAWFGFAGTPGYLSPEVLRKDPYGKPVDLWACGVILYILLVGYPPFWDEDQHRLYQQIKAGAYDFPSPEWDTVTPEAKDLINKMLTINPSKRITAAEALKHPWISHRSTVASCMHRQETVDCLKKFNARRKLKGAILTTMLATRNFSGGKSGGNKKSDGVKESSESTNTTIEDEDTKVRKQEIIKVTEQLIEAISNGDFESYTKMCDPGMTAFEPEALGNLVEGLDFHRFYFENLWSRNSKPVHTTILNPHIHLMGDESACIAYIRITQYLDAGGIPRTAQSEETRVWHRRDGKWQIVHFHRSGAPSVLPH

[13] = molecular target: T1, Lymphokine-activated killer T-cell-originated protein kinase (Homo sapiens) (UniProt Q96KB5)
T1 sequence (whole entry): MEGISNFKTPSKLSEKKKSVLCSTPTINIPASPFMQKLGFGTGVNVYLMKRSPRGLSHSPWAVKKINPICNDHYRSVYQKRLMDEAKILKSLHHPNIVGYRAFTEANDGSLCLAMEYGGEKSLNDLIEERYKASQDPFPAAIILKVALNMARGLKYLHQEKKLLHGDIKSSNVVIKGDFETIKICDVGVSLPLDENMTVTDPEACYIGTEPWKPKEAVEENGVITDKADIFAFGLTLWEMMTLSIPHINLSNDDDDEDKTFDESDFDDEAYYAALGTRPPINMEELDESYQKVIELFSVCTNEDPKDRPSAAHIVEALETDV

[14] = molecular target: Mitogen-activated protein kinase 6 (Homo sapiens) (UniProt Q16659)
[15] = molecular target: Glycogen synthase kinase-3 beta (Homo sapiens, UniProt P49841)
Glycogen synthase kinase-3 beta, sequence (P49841 whole entry, looked up): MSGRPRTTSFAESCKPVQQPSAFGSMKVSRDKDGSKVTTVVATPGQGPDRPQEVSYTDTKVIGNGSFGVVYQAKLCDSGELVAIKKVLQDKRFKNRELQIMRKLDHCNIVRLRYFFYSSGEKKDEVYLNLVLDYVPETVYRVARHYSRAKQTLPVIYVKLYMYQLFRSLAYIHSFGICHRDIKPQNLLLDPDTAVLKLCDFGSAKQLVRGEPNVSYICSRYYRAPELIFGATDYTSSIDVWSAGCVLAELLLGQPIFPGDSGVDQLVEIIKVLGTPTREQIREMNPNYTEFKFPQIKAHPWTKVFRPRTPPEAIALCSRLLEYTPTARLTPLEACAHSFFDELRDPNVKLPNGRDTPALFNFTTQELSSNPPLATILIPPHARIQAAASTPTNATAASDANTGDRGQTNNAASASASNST

[16] = molecular target: Cyclin-dependent kinase 2 (Homo sapiens, UniProt P24941)
[17] = molecular target: Serine/threonine-protein kinase OSR1 (Homo sapiens) (UniProt O95747)
Serine/threonine-protein kinase OSR1 (Homo sapiens), sequence (O95747 2-527 limits assumed): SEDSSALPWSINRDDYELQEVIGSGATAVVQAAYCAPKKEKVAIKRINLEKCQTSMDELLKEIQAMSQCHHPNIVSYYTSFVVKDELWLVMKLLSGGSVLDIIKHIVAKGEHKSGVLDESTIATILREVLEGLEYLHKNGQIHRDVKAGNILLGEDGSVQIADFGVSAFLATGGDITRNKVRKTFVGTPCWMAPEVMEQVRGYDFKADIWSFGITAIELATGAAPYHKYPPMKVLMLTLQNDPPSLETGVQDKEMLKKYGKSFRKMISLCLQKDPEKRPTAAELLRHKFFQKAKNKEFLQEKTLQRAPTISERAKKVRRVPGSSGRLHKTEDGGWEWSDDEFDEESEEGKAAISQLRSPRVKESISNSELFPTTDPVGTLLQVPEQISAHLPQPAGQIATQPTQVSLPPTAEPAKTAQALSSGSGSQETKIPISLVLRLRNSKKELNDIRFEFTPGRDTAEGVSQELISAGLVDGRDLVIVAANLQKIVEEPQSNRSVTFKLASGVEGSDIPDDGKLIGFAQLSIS

[18] = molecular target: Dual specificity protein kinase CLK3 (Homo sapiens) (UniProt P49761)
[19] = molecular target: TRAF2 and NCK-interacting protein kinase (Homo sapiens) (UniProt Q9UKE5)
TRAF2 and NCK-interacting protein kinase (Homo sapiens), sequence (Q9UKE5 whole entry, looked up): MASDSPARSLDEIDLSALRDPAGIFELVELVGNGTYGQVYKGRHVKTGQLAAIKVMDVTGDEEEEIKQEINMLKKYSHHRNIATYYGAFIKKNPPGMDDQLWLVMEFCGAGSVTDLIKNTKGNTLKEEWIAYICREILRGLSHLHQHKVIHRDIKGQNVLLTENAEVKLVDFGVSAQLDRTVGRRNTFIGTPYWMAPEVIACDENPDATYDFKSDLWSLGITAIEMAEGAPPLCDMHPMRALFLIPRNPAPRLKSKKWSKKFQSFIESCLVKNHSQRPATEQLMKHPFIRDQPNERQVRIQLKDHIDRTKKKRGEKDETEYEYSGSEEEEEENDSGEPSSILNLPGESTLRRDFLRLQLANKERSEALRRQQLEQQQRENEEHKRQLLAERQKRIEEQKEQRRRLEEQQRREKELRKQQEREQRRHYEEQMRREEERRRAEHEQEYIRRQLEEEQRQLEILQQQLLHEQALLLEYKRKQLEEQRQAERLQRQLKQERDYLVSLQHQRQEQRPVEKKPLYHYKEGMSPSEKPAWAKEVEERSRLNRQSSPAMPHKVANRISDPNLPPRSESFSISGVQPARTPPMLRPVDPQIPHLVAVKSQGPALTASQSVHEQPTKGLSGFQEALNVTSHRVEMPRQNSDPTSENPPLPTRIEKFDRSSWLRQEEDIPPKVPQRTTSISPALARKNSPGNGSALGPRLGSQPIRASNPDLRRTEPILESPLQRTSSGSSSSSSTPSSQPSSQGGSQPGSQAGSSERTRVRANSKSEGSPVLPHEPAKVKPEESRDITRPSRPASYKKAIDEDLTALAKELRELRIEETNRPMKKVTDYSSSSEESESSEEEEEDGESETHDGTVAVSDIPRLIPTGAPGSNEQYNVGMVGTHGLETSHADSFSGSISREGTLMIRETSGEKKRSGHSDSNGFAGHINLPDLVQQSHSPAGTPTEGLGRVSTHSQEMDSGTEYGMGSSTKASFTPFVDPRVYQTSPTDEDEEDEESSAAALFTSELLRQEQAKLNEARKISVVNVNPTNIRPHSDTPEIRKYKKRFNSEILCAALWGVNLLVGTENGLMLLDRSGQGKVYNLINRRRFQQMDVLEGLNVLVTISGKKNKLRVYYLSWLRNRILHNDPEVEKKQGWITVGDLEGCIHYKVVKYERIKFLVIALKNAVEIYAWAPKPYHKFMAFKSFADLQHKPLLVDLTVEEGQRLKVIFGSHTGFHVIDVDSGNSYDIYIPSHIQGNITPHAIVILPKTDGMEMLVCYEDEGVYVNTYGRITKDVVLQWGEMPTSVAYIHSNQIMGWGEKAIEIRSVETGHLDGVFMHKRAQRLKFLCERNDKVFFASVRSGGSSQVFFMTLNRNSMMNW

[20] = molecular target: T2, Mitogen-activated protein kinase kinase kinase 5 (Homo sapiens) (UniProt Q99683)
T2 sequence (whole entry): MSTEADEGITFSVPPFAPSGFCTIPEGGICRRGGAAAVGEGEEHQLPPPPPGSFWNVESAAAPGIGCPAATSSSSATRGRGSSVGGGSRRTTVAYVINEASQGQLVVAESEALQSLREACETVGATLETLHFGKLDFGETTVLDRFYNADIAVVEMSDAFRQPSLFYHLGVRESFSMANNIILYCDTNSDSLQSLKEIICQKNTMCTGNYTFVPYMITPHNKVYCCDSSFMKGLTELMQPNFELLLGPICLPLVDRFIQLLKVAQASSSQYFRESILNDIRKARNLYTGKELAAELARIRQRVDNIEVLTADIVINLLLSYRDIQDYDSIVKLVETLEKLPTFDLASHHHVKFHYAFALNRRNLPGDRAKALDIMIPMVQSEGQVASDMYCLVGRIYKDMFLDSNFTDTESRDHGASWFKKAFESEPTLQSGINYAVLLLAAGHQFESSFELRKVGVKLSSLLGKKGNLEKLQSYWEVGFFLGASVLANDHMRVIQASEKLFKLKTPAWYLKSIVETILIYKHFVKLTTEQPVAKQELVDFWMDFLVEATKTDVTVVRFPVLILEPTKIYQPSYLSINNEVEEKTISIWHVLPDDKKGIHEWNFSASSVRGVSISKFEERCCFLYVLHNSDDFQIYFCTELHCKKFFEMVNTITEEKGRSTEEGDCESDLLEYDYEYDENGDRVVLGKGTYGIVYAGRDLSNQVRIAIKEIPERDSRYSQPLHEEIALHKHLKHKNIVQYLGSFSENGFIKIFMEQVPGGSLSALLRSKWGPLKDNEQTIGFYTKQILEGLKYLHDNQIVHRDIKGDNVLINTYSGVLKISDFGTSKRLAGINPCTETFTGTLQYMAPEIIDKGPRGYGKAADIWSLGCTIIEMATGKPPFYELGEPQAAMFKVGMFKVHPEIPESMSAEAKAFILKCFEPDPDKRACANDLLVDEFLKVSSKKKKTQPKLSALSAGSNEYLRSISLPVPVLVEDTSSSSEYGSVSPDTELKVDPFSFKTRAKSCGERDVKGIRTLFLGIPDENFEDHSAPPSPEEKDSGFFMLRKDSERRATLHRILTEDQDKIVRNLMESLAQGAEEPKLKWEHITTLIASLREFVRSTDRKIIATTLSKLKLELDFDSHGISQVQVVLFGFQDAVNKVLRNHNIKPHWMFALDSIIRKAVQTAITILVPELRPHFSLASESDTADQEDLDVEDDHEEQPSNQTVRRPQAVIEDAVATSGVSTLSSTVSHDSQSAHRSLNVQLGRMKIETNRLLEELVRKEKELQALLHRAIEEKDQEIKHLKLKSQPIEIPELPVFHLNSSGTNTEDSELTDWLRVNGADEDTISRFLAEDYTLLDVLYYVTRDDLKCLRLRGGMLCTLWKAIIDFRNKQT

Casein kinase I isoform gamma-2 (Homo sapiens), sequence (P78368 whole entry, looked up, canonical isoform): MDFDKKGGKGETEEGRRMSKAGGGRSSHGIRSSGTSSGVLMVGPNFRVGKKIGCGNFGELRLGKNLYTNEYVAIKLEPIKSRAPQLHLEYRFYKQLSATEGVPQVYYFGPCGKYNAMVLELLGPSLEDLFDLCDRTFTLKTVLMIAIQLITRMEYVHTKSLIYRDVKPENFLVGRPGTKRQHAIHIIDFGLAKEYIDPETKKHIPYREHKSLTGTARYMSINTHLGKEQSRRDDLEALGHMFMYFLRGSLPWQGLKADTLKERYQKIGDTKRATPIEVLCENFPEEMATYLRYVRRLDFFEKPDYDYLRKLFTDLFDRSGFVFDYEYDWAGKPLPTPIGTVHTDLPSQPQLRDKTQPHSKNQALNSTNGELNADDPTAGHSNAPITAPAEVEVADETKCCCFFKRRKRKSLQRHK
Ribosomal protein S6 kinase alpha-3 (Homo sapiens), sequence (P51812 whole entry): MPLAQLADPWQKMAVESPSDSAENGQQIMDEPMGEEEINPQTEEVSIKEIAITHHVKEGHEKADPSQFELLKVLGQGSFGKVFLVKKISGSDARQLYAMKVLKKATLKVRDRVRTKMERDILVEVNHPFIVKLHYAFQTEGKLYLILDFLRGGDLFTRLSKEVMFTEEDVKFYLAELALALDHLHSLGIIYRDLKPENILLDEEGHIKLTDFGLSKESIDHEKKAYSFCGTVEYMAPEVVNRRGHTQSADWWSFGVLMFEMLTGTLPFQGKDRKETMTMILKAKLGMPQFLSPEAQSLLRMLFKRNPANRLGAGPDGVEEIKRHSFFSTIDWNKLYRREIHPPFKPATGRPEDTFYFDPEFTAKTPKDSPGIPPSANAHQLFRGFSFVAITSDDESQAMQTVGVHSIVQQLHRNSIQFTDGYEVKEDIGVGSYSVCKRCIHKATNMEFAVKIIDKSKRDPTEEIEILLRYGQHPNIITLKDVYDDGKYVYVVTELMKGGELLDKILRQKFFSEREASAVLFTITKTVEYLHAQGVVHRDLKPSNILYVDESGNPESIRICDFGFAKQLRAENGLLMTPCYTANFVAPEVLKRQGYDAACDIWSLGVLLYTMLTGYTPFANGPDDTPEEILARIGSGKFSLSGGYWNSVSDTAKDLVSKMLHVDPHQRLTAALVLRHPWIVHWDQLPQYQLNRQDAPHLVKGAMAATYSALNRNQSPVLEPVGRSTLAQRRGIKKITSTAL

Row | ΔTm [1] [°C] | ΔTm [2] [°C] | ΔTm [3] [°C] | ΔTm [5] [°C] | ΔTm [6] [°C] | ΔTm [7] [°C] | ΔTm [8] [°C] | ΔTm [9] [°C] | ΔTm [10] [°C] | ΔTm [11] [°C] | ΔTm [12] [°C] | ΔTm [14] [°C] | ΔTm [15] [°C] | ΔTm [16] [°C] | ΔTm [17] [°C] | ΔTm [18] [°C] | ΔTm [19] [°C] | ΔTm [20] [°C] | SMILES | ΔTm [4] [°C] | ΔTm [13] [°C]
1 | 0.7 | 1.5 | 2.7 | 0.4 | 1.4 | 2.8 | 0.7 | 1 | 3.9 | 0.3 | 0.5 | 0.5 | 5 | 2.3 | 2.2 | 3.1 | 5.3 | 1.1 | O=c1cc(-c2ccc(O)cc2)oc2cc(O)cc(O)c12 | 3.5 | 0.5
2 | 2.5 | 2.1 | 3.5 | 0.3 | 1.7 | 3 | 2 | 2.1 | 4.7 | 1.8 | 0.8 | 0.5 | 1.6 | 2.6 | 3.2 | 2 | 3 | 8.8 | O=C1c2ccccc2-c2n[nH]c3cccc1c23 | 3.4 | 0.8
3 | 0.5 | -1 | 0.2 | 0.4 | 0.7 | 0.7 | 1.1 | 0.6 | 1.4 | 0 | 1 | 1 | -0.6 | 0.3 | 0.5 | 0 | 0.6 | 0.3 | Cc1cc2ncc(-c3ccccc3)nc2cc1C | -0.1 | -0.6
4 | 0.7 | 1.2 | 3.6 | 1.2 | 0.6 | 2.5 | 0.7 | 0.6 | 4.1 | 0.8 | 3.3 | 0.5 | 7.8 | 1.5 | 2 | 2.5 | 1.2 | 0.2 | O=C1NC(=O)C(c2c[nH]c3ccccc23)=C1c1c[nH]c2ccccc12 | -0.2 | -0.2
5 | 0.8 | -0.7 | 0.6 | 0.2 | 1 | 0.1 | 1.1 | -0.1 | 0.8 | -0.2 | 0.4 | 0.2 | 4.7 | 0.4 | 0.9 | -0.1 | 1.9 | 0.3 | Oc1ccc(-c2nc(-c3ccc(F)cc3)c(-c3ccncc3)[nH]2)cc1 | 0.9 | 0.3
6 | 1.7 | -0.4 | 1.8 | 0.9 | 3 | 0.1 | 2.6 | 0.2 | -1.2 | -0.2 | 2.2 | 0.4 | 6.9 | 1.8 | -0.3 | 0.1 | 4.6 | -0.3 | O=[N+]([O-])c1ccc(-c2nc(-c3ccc(F)cc3)c(-c3ccncc3)[nH]2)cc1 | 0.1 | 0.3
7 | -0.1 | -0.6 | -0.2 | 0.5 | 0.5 | 0.3 | 0.2 | 0.1 | -0.5 | -0.1 | 0 | 0 | -0.1 | -0.6 | 0 | 0.9 | -0.2 | 0.3 | C#Cc1cccc(Nc2ncnc3cc(OCCOC)c(OCCOC)cc23)c1 | 1.2 | 0.7
8 | 0.4 | -0.9 | 0 | 0.5 | 0.6 | 0.1 | 0.7 | 0.3 | 1.3 | -0.6 | 0.5 | 0.6 | 1.1 | 0.4 | 0.4 | 0.1 | -0.2 | 0.3 | O=c1cc(N2CCOCC2)oc2c(-c3ccccc3)cccc12 | 1.4 | -0.5
9 | 3.8 | 0.2 | 6 | 0.2 | 6.1 | 5.8 | 6.7 | 0.4 | 5.9 | 5.3 | 0.5 | 0.1 | 2.4 | 4.5 | 1.3 | 4.2 | 3.6 | 0.4 | CC(C)N(CCO)c1nc(Nc2cccc(Cl)c2)c2ncn(C(C)C)c2n1 | 0.4 | 0
10 | 5.6 | 1 | 4.2 | 1.1 | 5.7 | 5.6 | 3.5 | 0 | 9.2 | 1.2 | 0.4 | -0.1 | 7.4 | 1.5 | 0.5 | 8.3 | 4.7 | 10.4 | NC1=NC(=O)/C(=C2\CCNC(=O)c3[nH]c(Br)cc32)N1 [HYMENIALDISINE] | 7.6 | 0.1

Row | SMILES | ΔTm [1] [°C] | ΔTm [2] [°C] | ΔTm [3] [°C] | ΔTm [5] [°C] | ΔTm [6] [°C] | ΔTm [7] [°C] | ΔTm [8] [°C] | ΔTm [9] [°C] | ΔTm [10] [°C] | ΔTm [11] [°C] | ΔTm [12] [°C] | ΔTm [14] [°C] | ΔTm [15] [°C] | ΔTm [16] [°C] | ΔTm [17] [°C] | ΔTm [18] [°C] | ΔTm [19] [°C] | ΔTm [20] [°C] | ΔTm [4] [°C] | ΔTm [13] [°C]
11 | O=S(=O)(NCCNC/C=C/c1ccc(Br)cc1)c1cccc2cnccc12 | 0.1 | 0.9 | 2.2 | -0.4 | 0.6 | 0.7 | 0.1 | -0.1 | 1.1 | 1.5 | 0.5 | 0.4 | -0.6 | -0.5 | 0.9 | 1 | 0 | -0.3 | 3.8 | 0.6
